Assays:
NAMPT = NAMPT (Homo sapiens, UniProt P43490); assay: TR-FRET Binding Assay of NAMPT with PRPP; settings: with 200 μM PRPP and 2.5 mM ATP; 2 nM NAMPT, 2 nM probe, 16 hours equilibration
In short: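 Substrate-containing variant: 200 μM PRPP plus 2.5 mM ATP are added to 2 nM NAMPT and 2 nM probe, with a 16-hour incubation ahead of TR-FRET reading.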

PC3 cells = assay: NAMPT Cell Proliferation Assay; format: cell-based; settings: Homo sapiens, PC-3, 120 h, 5 days incubation, cell viability by Cell Titer Glo
In short: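 Seed PC3 at 500 cells/well (RPMI, 10% HI-FBS), attach overnight; add compound, 10-fold series 10 μM → 1×10^−5 μM; incubate 5 d, 37° C/5% CO2; luminescent viability readout; fit % inhibition sigmoidally for IC50.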

[1] = molecular target: NAMPT (human, recombinant, C-terminally His-tagged) (Homo sapiens, UniProt P43490); assay: Time-Resolved Fluorescence Resonance Energy Transfer (TR-FRET) Binding Assay of NAMPT; settings: without substrates; 6.8 nM NAMPT, 200 nM probe, 3 hours equilibration
In short: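 In a displacement format, the nicotinamide-site tracer at 200 nM competed with test compound for 6.8 nM enzyme detected via 1 nM terbium anti-His antibody; incubation lasted 3 hours at room temperature in 50 mM HEPES pH 7.5, 100 mM NaCl. Normalized 520/495 nm emission ratios gave IC50 values.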

Chain of NAMPT (human, recombinant, C-terminally His-tagged) (P43490 whole entry): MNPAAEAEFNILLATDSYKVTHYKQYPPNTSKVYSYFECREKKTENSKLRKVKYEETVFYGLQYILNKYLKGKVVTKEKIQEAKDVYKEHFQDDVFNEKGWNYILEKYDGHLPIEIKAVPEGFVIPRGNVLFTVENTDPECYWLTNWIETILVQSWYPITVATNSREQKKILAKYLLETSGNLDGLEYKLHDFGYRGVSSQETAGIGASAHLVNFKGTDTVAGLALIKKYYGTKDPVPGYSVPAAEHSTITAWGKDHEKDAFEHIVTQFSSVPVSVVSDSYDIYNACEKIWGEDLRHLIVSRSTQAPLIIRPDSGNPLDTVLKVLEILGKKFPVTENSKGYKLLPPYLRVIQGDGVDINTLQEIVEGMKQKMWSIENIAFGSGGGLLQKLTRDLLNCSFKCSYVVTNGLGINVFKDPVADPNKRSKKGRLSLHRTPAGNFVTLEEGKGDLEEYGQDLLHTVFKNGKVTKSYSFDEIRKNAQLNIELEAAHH
Chain of NAMPT (P43490 whole entry): as above

Row | IC50 (NAMPT) [nM] | IC50 (PC3 cells) [nM] | IC50 [1] [nM] | Structure (SMILES)
1 | 0.978 | 43.6 | 706 | CC1CC1C(=O)N1CC(c2ccc(C(=O)NCc3ccn4ccnc4c3)cc2)C1 (stereo not drawn) [Example 628, N-(imidazo[1,2-a]pyridin-7-ylmethyl)-4-{1-[(2-methylcyclopropyl)carbonyl]azetidin-3-yl}benzamide]
2 | 1.07 | 8.86 | 158 | COCCC(=O)N(Cc1ccc(C#N)cc1)c1ncc(C(=O)NCc2ccc3nccn3c2)s1 [Example 56, 2-[(4-cyanobenzyl)(3-methoxypropanoyl)amino]-N-(imidazo[1,2-a]pyridin-6-ylmethyl)-1,3-thiazole-5-carboxamide]
3 | 0.217 | 24.4 | 564 | O=C(NCc1ccn2ccnc2c1)c1ccc(C2CCN(C(=O)[C@H]3CCCO3)CC2)cc1 [Example 310, N-(imidazo[1,2-a]pyridin-7-ylmethyl)-4-{1-[(2R)-tetrahydrofuran-2-ylcarbonyl]piperidin-4-yl}benzamide]
4 | 0.555 | 2.35 | 49.3 | COC1(Cn2ncc(-c3ccc(C(=O)NCc4ccn5ccnc5c4)s3)c2C)CCCC(C)(C)C1 (stereo not drawn) [Example 273, N-(imidazo[1,2-a]pyridin-7-ylmethyl)-5-{1-[(1-methoxy-3,3-dimethylcyclohexyl)methyl]-5-methyl-1H-pyrazol-4-yl}thiophene-2-carboxamide]
5 | 0.21 | 34.1 | 44.8 | O=C(CCC1CCCC1)Nc1ccc(C(=O)NCc2ccn3ccnc3c2)cc1 [Example 212, 4-[(3-cyclopentylpropanoyl)amino]-N-(imidazo[1,2-a]pyridin-7-ylmethyl)benzamide]
6 | 0.773 | 1620 | 4830 | CC(C)(O)Cn1cc(-c2ncc(C(=O)NCc3ccn4ccnc4c3)s2)cn1 [Example 204, 2-[1-(2-hydroxy-2-methylpropyl)-1H-pyrazol-4-yl]-N-(imidazo[1,2-a]pyridin-7-ylmethyl)-1,3-thiazole-5-carboxamide]
7 | 0.169 | 5320 | > 10000 | CN1CCC(C(=O)Nc2ccc(NC(=O)Nc3ccc4nccn4c3)cc2)CC1 [Example 48]
8 | 0.274 | 19.1 | 289 | O=C(NCc1ccn2ccnc2c1)c1ccc(C2CCN(C(=O)[C@@H]3CCCO3)CC2)cc1 [Example 311, N-(imidazo[1,2-a]pyridin-7-ylmethyl)-4-{1-[(2S)-tetrahydrofuran-2-ylcarbonyl]piperidin-4-yl}benzamide]
9 | 0.76 | 60.8 | 137 | O=C(NCc1ccn2ccnc2c1)c1ccc(C2CN(C(=O)c3ccncc3)C2)cc1 [Example 658, N-(imidazo[1,2-a]pyridin-7-ylmethyl)-4-[1-(pyridin-4-ylcarbonyl)azetidin-3-yl]benzamide]
10 | 0.169 | 34.8 | 281 | Cn1cccc1C(=O)N1CCC(c2ccc(C(=O)NCc3ccn4ccnc4c3)cc2)C1 (stereo not drawn) [Example 606, N-(imidazo[1,2-a]pyridin-7-ylmethyl)-4-{1-[(1-methyl-1H-pyrrol-2-yl)carbonyl]pyrrolidin-3-yl}benzamide]
11 | 0.751 | 7.35 | 70.4 | CC(C)OC(=O)N1CCC(c2ccc(C(=O)NCc3ccn4ccnc4c3)s2)CC1 [Example 570, propan-2-yl-4-{5-[(imidazo[1,2-a]pyridin-7-ylmethyl)carbamoyl]thiophen-2-yl}piperidine-1-carboxylate]
12 | 0.645 | 82.6 | 164 | O=C(NCc1ccn2ccnc2c1)c1ccc(C2CCN(C(=O)c3ccsc3)C2)cc1 (stereo not drawn) [Example 617, N-(imidazo[1,2-a]pyridin-7-ylmethyl)-4-[1-(thiophen-3-ylcarbonyl)pyrrolidin-3-yl]benzamide]
13 | 0.667 | 8080 | 4730 | O=C(NCc1ccn2ccnc2c1)c1ccc(O[C@H]2CCN(C(=O)CC3CC3)C2)cc1 [Example 347, 4-{[(3S)-1-(cyclopropylacetyl)pyrrolidin-3-yl]oxy}-N-(imidazo[1,2-a]pyridin-7-ylmethyl)benzamide]
14 | 0.377 | 38.3 | 208 | O=C(Nc1ccc(C2=CCN(C(=O)C3CCOCC3)CC2)cc1)Nc1ccc2nccn2c1 [Example 34, 1-imidazo[1,2-a]pyridin-6-yl-3-{4-[1-(tetrahydro-2H-pyran-4-ylcarbonyl)-1,2,3,6-tetrahydropyridin-4-yl]phenyl}urea]
15 | 0.434 | 69.4 | 21.7 | CC1(Cn2cc(-c3ccc(C(=O)NCc4ccn5ccnc5c4)s3)cn2)CCNCC1 [Example 789, N-(imidazo[1,2-a]pyridin-7-ylmethyl)-5-{1-[(4-methylpiperidin-4-yl)methyl]-1H-pyrazol-4-yl}thiophene-2-carboxamide]
16 | 0.783 | 632 | 994 | CC(C)CC(=O)N1CC=C(c2ccc(C(=O)NCc3ccn4ccnc4c3)o2)CC1 [Example 745, N-(imidazo[1,2-a]pyridin-7-ylmethyl)-5-[1-(3-methylbutanoyl)-1,2,3,6-tetrahydropyridin-4-yl]furan-2-carboxamide]
17 | 0.342 | 7.43 | 181 | O=C(NCc1ccn2ccnc2c1)c1ccc(-c2cnn(CC3CCOCC3)c2)o1 [Example 480, N-(imidazo[1,2-a]pyridin-7-ylmethyl)-5-[1-(tetrahydro-2H-pyran-4-ylmethyl)-1H-pyrazol-4-yl]furan-2-carboxamide]
18 | 1.01 | 695 | 1030 | N#Cc1cccc(C(=O)N2CCC(c3ccc(C(=O)NCc4ccn5ccnc5c4)cc3)C2)c1 (stereo not drawn) [Example 603, 4-[1-(3-cyanobenzoyl)pyrrolidin-3-yl]-N-(imidazo[1,2-a]pyridin-7-ylmethyl)benzamide]
19 | 0.271 | 39.7 | 116 | CC(C)CCC(=O)Nc1ccc(C(=O)NCc2ccn3ccnc3c2)cc1 [Example 213, N-(imidazo[1,2-a]pyridin-7-ylmethyl)-4-[(4-methylpentanoyl)amino]benzamide]
20 | 0.445 | 80.3 | 133 | O=C(NCc1ccn2ccnc2c1)Nc1ccc(C2CCN(C(=O)C3COCCO3)C2)cc1 (stereo not drawn) [Example 390]
21 | 0.169 | 15.1 | 41.2 | COCCn1cc(-c2ccc(C(=O)NCc3ccn4ccnc4c3)s2)cn1 [Example 269, N-(imidazo[1,2-a]pyridin-7-ylmethyl)-5-[1-(2-methoxyethyl)-1H-pyrazol-4-yl]thiophene-2-carboxamide]
22 | 0.169 | 107 | 7.96 | O=C(CC1CCOCC1)Nc1ccc(NC(=O)NCc2ccn3ccnc3c2)cc1 [Example 284, N-(4-{[(imidazo[1,2-a]pyridin-7-ylmethyl)carbamoyl]amino}phenyl)-2-(tetrahydro-2H-pyran-4-yl)acetamide]
23 | 0.992 | 63.2 | 161 | O=C(NCc1ccn2ccnc2c1)Nc1ccc(C2CCN(C(=O)c3cc(F)cc(F)c3)CC2)cc1 [Example 724, 1-{4-[1-(3,5-difluorobenzoyl)piperidin-4-yl]phenyl}-3-(imidazo[1,2-a]pyridin-7-ylmethyl)urea]
24 | 0.264 | 867 | 6840 | CC(C)(O)C(=O)N1CCC(Oc2ccc(C(=O)NCc3ccn4ccnc4c3)cc2)CC1 [Example 417, 4-{[1-(2-hydroxy-2-methylpropanoyl)piperidin-4-yl]oxy}-N-(imidazo[1,2-a]pyridin-7-ylmethyl)benzamide]
25 | 0.196 | 10.4 | 17.8 | CC(C)CCC(=O)Nc1ccc(NC(=O)NCc2ccc3nccn3c2)cc1 [Example 274, N-(4-{[(imidazo[1,2-a]pyridin-6-ylmethyl)carbamoyl]amino}phenyl)-4-methylpentanamide]
26 | 0.297 | 44.7 | 76.5 | CC(C)OCC(=O)Nc1ccc(NC(=O)NCc2ccn3ccnc3c2)cc1 [Example 282, N-(4-{[(imidazo[1,2-a]pyridin-7-ylmethyl)carbamoyl]amino}phenyl)-2-(propan-2-yloxy)acetamide]
27 | 2.3 | 24.3 | 899 | CC(C)(C)OC(=O)N1CC=C(c2ccc(C(=O)NCc3ccc4nccn4c3)cc2)CC1 [Example 83, tert-butyl 4-{4-[(imidazo[1,2-a]pyridin-6-ylmethyl)carbamoyl]phenyl}-3,6-dihydropyridine-1(2H)-carboxylate]
28 | 0.783 | 58.2 | 166 | O=C(NCc1ccn2ccnc2c1)Nc1ccc(OC2CCN(C(=O)c3ccc(F)cc3F)CC2)cc1 [Example 727, 1-(4-{[1-(2,4-difluorobenzoyl)piperidin-4-yl]oxy}phenyl)-3-(imidazo[1,2-a]pyridin-7-ylmethyl)urea]
29 | 0.23 | 15.1 | 41.2 | CC(C)(C)OC(=O)N1CCC(c2ccc(C(=O)NCc3cn4ccnc4cn3)cc2)CC1 [Example 678, tert-butyl 4-{4-[(imidazo[1,2-a]pyrazin-6-ylmethyl)carbamoyl]phenyl}piperidine-1-carboxylate]
